# Experiment: Clearance in rat hepatocytes
# Type: in vitro ADME
# Conditions: hepatic extraction ratio; test compound 0.5 μM, 1×10^6 cells/mL, 37° C.
# Method: Test compounds and 4 control compounds are tested in duplicate per run. Test compound concentration is 0.5 μM and cell concentration is 1×10^6 cells/mL in the incubation. The described method is performed by the liquid handling system Tecan RSP and is based on a 96-well format.
# The liver is collected from a male Spraque-Dawley rat. One liver lobe is cut off and flushed with various buffers to loosen the cells. The cell suspension is washed and centrifuged, and the cell density is adjusted to 1.2×10^6 cells/mL with Krebs-Henseleit buffer, pH 7.4, containing 0.2% bovine serum albumin (BSA). Only cell suspensions with viability above 80% are used.
# The cell suspension is pre-heated (20 min) to 37° C. Test compound is added, and the mixture is incubated for 20 minutes. Incubations are run in duplicate. Samples are withdrawn at predetermined stop times and mixed with methanol containing internal standard (IS) to terminate all enzyme activity and precipitate proteins.
# The percentage of organic solvent in the incubations is less than 1%. Careful inspections of reagents are performed prior to the start of any experiment to ensure all reagents are in solution.
# The 96-well plates are centrifuged. Test compound depletion, using a compound specific LC/MS/MS method, is determined.
# Data analysis is performed as described above in the section “Biological assay for analysis of clearance in human liver microsomes”, with the following modifications: Intrinsic clearance (CIint) (mL/min/10^6 cells) is calculated from: […]
# where c is the cell concentration in 10^6 cells/mL.
# The following scaling factors for rat are used for eq. 4:
# a: 120 (cells/liver weight (10^6 cells/g))
# d: 0.25 (body weight (kg))
# Liver blood flow in rats (for eq. 5):
# Apparent clearance below approximately 25 mL/min/kg rat body weight (corresponding to an extraction ratio of approx. 33%) is considered as low clearance (high metabolic stability). Apparent intrinsic clearance above approximately 165 mL/min/kg rat body weight (corresponding to an extraction ratio of approx. 75%) is considered as high clearance (low metabolic stability).
structure (smiles),measurement,value
"COc1cc([C@@H](C)N[C@H]2CC[C@@H](c3ccc(OCC(=O)N4CCNCC4)cc3)C2)ccc1F [Compound 103, 2-[4-[(1R,3S)-3-[[(1R)-1-(4-Fluoro-3-methoxy-phenyl)ethyl]-amino]-cyclopentyl]phenoxy]-1-piperazin-1-yl-ethanone]",Clearance (% Eh) in rat hepatocytes,B (B: 33% ≦ Eh ≦ 75%)
"COc1cc([C@@H](C)N[C@H]2CC[C@@H](c3ccc(OCC(=O)NCCNS(C)(=O)=O)cc3)C2)ccc1F [Compound 108, 2-[4-[(1R,3S)-3-[[(1R)-1-(4-Fluoro-3-methoxy-phenyl)ethyl]-amino]-cyclopentyl]phenoxy]-N-[2-(methanesulfonamido)ethyl]acetamide]",Clearance (% Eh) in rat hepatocytes,B (B: 33% ≦ Eh ≦ 75%)
"COc1cc([C@@H](C)N[C@H]2CC[C@@H](c3ccc(OCC(=O)NCCS(N)(=O)=O)cc3)C2)ccc1F [Compound 104, 2-[4-[(1R,3S)-3-[[(1R)-1-(4-Fluoro-3-methoxy-phenyl)ethyl]-amino]-cyclopentyl]phenoxy]-N-(2-sulfamoylethyl)acetamide]",Clearance (% Eh) in rat hepatocytes,A (A: Eh < 33%)
"COc1cc([C@@H](C)N[C@H]2CC[C@@H](c3ccc(OCC(=O)NCCNCCO)cc3)C2)ccc1F [Compound 106, 2-[4-[(1R,3S)-3-[[(1R)-1-(4-Fluoro-3-methoxy-phenyl)ethyl]-amino]-cyclopentyl]phenoxy]-N-[2-(2-hydroxyethylamino)ethyl]acetamide]",Clearance (% Eh) in rat hepatocytes,B (B: 33% ≦ Eh ≦ 75%)
"C[C@@H](N[C@H]1CC[C@@H](c2ccc(OCC(=O)NC3CCNCC3)cc2)C1)c1cccc2ccccc12 [Compound 112, 2-[4-[(1R,3S)-3-[[(1R)-1-(1-Naphthyl)ethyl]amino]cyclopentyl]-phenoxy]-N-(4-piperidyl)acetamide]",Clearance (% Eh) in rat hepatocytes,B (B: 33% ≦ Eh ≦ 75%)
"COc1cc([C@@H](C)N[C@H]2CC[C@@H](c3ccc(OCC(=O)N4CCN(S(N)(=O)=O)CC4)cc3)C2)ccc1F [Compound 110, 4-[2-[4-[(1R,3S)-3-[[(1R)-1-(4-Fluoro-3-methoxy-phenyl)-ethyl]-amino]cyclopentyl]phenoxy]acetyl]piperazine-1-sulfonamide]",Clearance (% Eh) in rat hepatocytes,B (B: 33% ≦ Eh ≦ 75%)
"COc1cc([C@@H](C)N[C@H]2CC[C@@H](c3ccc(OCC(=O)N4CCN(C(C)=O)CC4)cc3)C2)ccc1F [Compound 109, 1-(4-Acetylpiperazin-1-yl)-2-[4-[(1R,3S)-3-[[(1R)-1-(4-fluoro-3-methoxy-phenyl)ethyl]amino]cyclopentyl]phenoxy]ethanone]",Clearance (% Eh) in rat hepatocytes,B (B: 33% ≦ Eh ≦ 75%)

# Source: patent US20130261132A1, “CALCIUM-SENSING RECEPTOR-ACTIVE COMPOUNDS” (LEO PHARMA A/S, priority 2010, published 2013)
